From paper PMC4947907, “Lupin Peptides Modulate the Protein-Protein Interaction of PCSK9 with the Low Density Lipoprotein Receptor in HepG2 Cells” (Scientific Reports, 2016)
No end group written: not given here.

Assays:
[1] = target: T1, PCSK9-LDLR interaction (recombinant His-tagged PCSK9 / recombinant LDLR-AB domain) (Homo sapiens, UniProt Q8NBP7); experiment: In vitro PCSK9-LDLR binding assay (solid-phase, CycLex); settings: synthetic peptide, absorbance 450 nm versus vehicle, average ± SEM of three independent experiments in duplicate
T1 construct: purchased CycLex Co., Nagano, Japan
Protocol: In vitro experiments were performed using a solid-phase binding assay between recombinant His-tagged PCSK9 and recombinant LDLR-AB domain.
The commercial assay provides a plate pre-coated with a recombinant LDLR-AB domain, which is the PCSK9 binding site. For screening direct inhibitors of the PCSK9-LDLR interaction, lupin peptides were added to the proper amount of His-tagged PCSK9 in each well coated with LDLR-AB domain. Biotinylated anti-His-tag monoclonal antibody specifically reacted with recombinant His-tagged PCSK9 trapped with LDLR-AB domain immobilized on the microplate surface. The inhibitory effects were analyzed measuring the amount of His-tagged PCSK9 on the well. In particular, the inhibitory effect, calculated as % PCSK9-LDLR binding inhibition, determines a reduction of absorbance measured at 450 nm using the Synergy H1 fluorescent plate reader from Biotek versus vehicle control. Data points represent averages ± SEM of three independent experiments in duplicate. ***p < 0.0001 **p < 0.001 versus C.
The employed assay provides a plate pre-coated with a recombinant LDLR-AB domain, which is the PCSK9 binding site. For screening, the peptides were added to proper amount of His-tagged PCSK9 in each well coated with LDLR-AB domain. Biotinylated anti-His-tag monoclonal antibody specifically reacts with recombinant His-tagged PCSK9 trapped with LDLR-AB domain immobilized on the microplate surface. […] Data points represent averages ± SEM of three independent experiments in duplicate. *p < 0.05 **P < 0.001 versus C.
P-tot peptides (1.0 and 2.5 μg/μl), T-tot peptides (0.5 and 1.0 μg/μl), P-abs (12.5 ng/μl) and T-abs peptides (16.0 ng/μl) were tested using the in vitro PCSK9-LDLR binding assay (CycLex Co., Nagano, Japan) following the manufacture instructions. […] The reaction was stopped with 2.0 N sulfuric acid and the absorbance at 450 nm was measured using the Synergy H1 fluorescent plate reader (Biotek, Bad Friedrichshall, Germany).
The absorbance at 450 nm was measured using the Synergy H1 fluorescent plate reader (Biotek, Bad Friedrichshall, Germany).

[2] = test system: PCSK9-LDLR interaction; settings: ref 23 (Zhang and coworkers); read-out: IC50, PCSK9-LDLR inhibition; cited from earlier work
Source text: P5 is thus one of the shortest peptides ever described in literature endowed with this specific activity.

[3] = test system: Caco-2 cells; experiment: Absorption in differentiated Caco-2 cells grown in two-compartment system; peptides identified/quantified in basolateral solution; assay type: in vitro ADME, human; settings: Caco-2 AP to BL, 4 h
Source text: Lupin protein consumption provides some health benefits in the area of hypercholesterolemia prevention. Studies in animal models[31][32] and in the clinics[33][34] have shown that the protein itself is a main hypocholesterolemic agent. […] Another investigation in human Caco-2 cells has provided evidence that at least some of these peptic and tryptic peptides may be absorbed in the small intestine, since they are transferred from the apical (AP) to the basolateral (BL) compartment in differentiated Caco-2 cells grown in a two-compartment system.
Precisely, Caco-2 cells have been incubated for 4 h in the AP chamber with 500 μl of a 1.0 μg/μl solution of P-tot or T-tot peptides and, at the end of treatment, BL solutions (700 μl) have been collected and absorbed peptic and tryptic peptides identified by HPLC-Chip ESI-MS/MS[37]. The BL solutions were then dried and diluted to 100 μl to obtain the solutions P-abs and T-abs at the concentration of 0.25 and 0.32 μg/μl, respectively. Both solutions were used for the present experiments.
The peptic (P-tot) and tryptic (T-tot) hydrolyzates from lupin protein are the same used in a previous paper, in which their capability to modulate cholesterol metabolism in HepG2 cells was investigated. […]

[4] = target: recombinant His-tagged PCSK9 wild type (proprotein convertase subtilisin/kexin type 9) (human, UniProt Q8NBP7 153-692, Limits of the kit protein are not printed. Taken as secreted, autocleaved PCSK9: prodomain 31-152 non-covalently bound to mature chain 153-692, from UniProt features. His tag omitted.); experiment: ELISA; CycLex in vitro PCSK9-LDLR binding assay: plate pre-coated with LDLR-AB domain; His-tagged PCSK9 added with vehicle or synthetic peptides T9 (32-320 uM) or P5 (0.001-100 uM), 2 h at room temperature; bound PCSK9 detected with biotinylated anti-His-tag antibody, absorbance at 450 nm; settings: both partners purified
Chain of recombinant His-tagged PCSK9 wild type (proprotein convertase subtilisin/kexin type 9) (Q8NBP7 153-692): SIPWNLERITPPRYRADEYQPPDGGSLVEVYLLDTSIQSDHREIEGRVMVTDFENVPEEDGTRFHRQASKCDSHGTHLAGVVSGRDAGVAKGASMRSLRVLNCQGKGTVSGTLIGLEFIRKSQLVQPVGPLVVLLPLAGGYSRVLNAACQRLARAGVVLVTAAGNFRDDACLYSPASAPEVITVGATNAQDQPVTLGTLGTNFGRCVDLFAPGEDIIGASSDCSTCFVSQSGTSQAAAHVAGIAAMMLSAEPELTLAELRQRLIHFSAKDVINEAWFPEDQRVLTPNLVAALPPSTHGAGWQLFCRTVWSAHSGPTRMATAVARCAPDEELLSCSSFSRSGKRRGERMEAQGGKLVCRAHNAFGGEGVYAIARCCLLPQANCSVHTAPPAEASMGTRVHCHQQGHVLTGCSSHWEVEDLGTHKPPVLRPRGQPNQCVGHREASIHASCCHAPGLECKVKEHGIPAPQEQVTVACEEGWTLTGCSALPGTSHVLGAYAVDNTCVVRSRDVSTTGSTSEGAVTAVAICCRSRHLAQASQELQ

T1 sequence (Q8NBP7 153-692): as above
T1 sequence (Q8NBP7 31-152 partner limits assumed): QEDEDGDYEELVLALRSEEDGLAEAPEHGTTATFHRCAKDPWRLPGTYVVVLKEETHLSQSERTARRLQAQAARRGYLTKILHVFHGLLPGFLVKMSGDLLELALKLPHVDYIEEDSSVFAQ

## CC[C@H](C)[C@H](NC(=O)[C@@H](NC(=O)CNC(=O)[C@H](CCC(=O)O)NC(=O)[C@H](CC(=O)O)NC(=O)[C@H](CCC(N)=O)NC(=O)[C@H](Cc1c[nH]cn1)NC(=O)[C@H](CO)NC(=O)[C@H](CCC(N)=O)NC(=O)[C@H](CCC(=O)O)NC(=O)[C@H](CCC(N)=O)NC(=O)CN)C(C)C)C(=O)N[C@H](C(=O)N[C@@H](CCCNC(=N)N)C(=O)O)C(C)C [Peptide T9]
[1]; 32 μM
  inhibition at 32 µM: 19 ± 8.47%
[1]; 160 μM
  inhibition at 160 µM: 33 ± 5.33%
[1]; […] μM
  inhibition at 320 µM: 53 ± 1.02%

## Ac-TVFTSWEEYLDWV-amide [Pep2-8]
[2]
  IC50: 810 ± 80 nM

## LILPKHSDAD [Peptide P5]
[3]; AP 500 μl of 1.0 μg/μl P-tot, BL solution (700 μl) dried and diluted to 100 μl, HPLC-MS/MS m/z 554.8 → 770.0, external calibration with synthetic standard, three injections
  P5 concentration in the P-abs solution: 28.64 ± 0.43 ng/µL
[3]; P-abs sample, HPLC-MS/MS
  P5 share of total peptic peptides absorbed by Caco-2 cells: 11.5%

B1: P5 (peptide)
peptide: LILPKHSDAD
notes: peptic peptide of Lupinus albus β2-conglutin (beta-conglutin precursor); source: synthetic peptide (PRIMM, Milan), >95% pure by HPLC
[4]
  IC50: 1600 nM
